Data on 1 molecule can be found in paper PMC2948407 (Journal of the American Chemical Society, 2010).

Structures are written as SMILES.

The test deals with T1, HasAp (Pseudomonas aeruginosa, UniProt O69756, H32A).
T1 sequence (O69756 1-184 H32A): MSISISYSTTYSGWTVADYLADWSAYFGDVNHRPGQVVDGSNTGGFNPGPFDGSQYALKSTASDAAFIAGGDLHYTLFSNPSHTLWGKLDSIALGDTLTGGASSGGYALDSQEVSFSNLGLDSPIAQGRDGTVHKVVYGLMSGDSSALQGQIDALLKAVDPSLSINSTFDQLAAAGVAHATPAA
The test is described as follows: UV-vis titration. In kind it is binding.

The molecule `c1c[nH]cn1` [imidazole] came in with a Kd of 4.7 mM.
